Holding throughout (assay type): cell-based, rat
The test system of one test is Noggin. As to the kind of experiment: quantitative real time PCR, Noggin expression. As to conditions: 500 ng/ml IGF-I, up to 48 hours, normalized to GAPDH. The text has this:
If IGF-I induction of oligodendrocyte differentiation involves the inhibition of BMP signaling, a change in the expression of BMP antagonists after IGF-I treatment might be observed. In addition to extracellular antagonists of BMP signaling, such as Noggin, intracellular proteins that can interfere with downstream BMP receptor signaling, called inhibitory Smads (Smad6, 7), have also been identified (Christian and Nakayama, 1999). Therefore, we performed Q-PCR analyses of cultures treated with IGF-I after various time points (up to 48 hours) and examined the relative fold change (normalized to an internal control; see Methods) of Noggin, Smad6, 7 (FIG. 6, A-C). Expression of Noggin, Smad6, 7 increased by at least 6-, 5-, and 2-fold, respectively, after IGF-I treatment (p<0.05, t-test). There may be an unexplained downregulation of Smad6 at the 48-h time point.
Total RNA was isolated from cell cultures using RNeasy columns (Qiagen). For real-time quantitative PCR, reactions were carried out essentially as described (Zhao et al., 2001). The relative amount of the tested message was normalized to the level of the internal control message, GAPDH. […] Primer sequences are available upon request.
On the technique in general: Real-time PCR tracks product formation cycle by cycle.

Test [1] has as its system adult hippocampus-derived neural progenitor cells. As to the kind of experiment: in vitro differentiation analysis of neural progenitor cells (immunocytochemistry for lineage markers). Here is the method: The neural progenitor cells isolated from the hippocampus of female Fischer 344 used in this study have been characterized previously (Gage et al., 1995; Palmer et al., 1997). The whole brain-derived neural stem cells from PIO ICR mice were isolated and cultured according to the methods as described, with slight modifications. Cells were cultured as previously described (Gage et al., 1995; Ray et al., 1993). Cells between passages 10 and 20 were used for in vitro differentiation analyses. To induce differentiation, cells were plated into 4-well chamber slides at a density of 55,000-75,000 cells per well and were allowed to proliferate in N2-supplemented (Invitrogen) DMEM:F12 (Omega Scientific) medium containing 20 ng/ml FGF-2 (PeproTech, Inc.) for 24 hours. FGF-2 was then withdrawn and cells were subsequently treated with differentiation media. […] For IGF-induction experiments, cells were trypsinized, washed with 1× PBS, and plated into insulin-free N2 medium. […] In some cultures, BrdU (2.5 μM, Sigma) was added to label dividing cells, and Q-VD-OPh (2 μM, Enzyme Systems Products) was added to prevent apoptosis.
Cells were fixed with 4% paraformaldehyde, followed by immunocytochemical staining as described (Palmer et al., 1999). Labeled cells were visualized using a Nikon E800 upright microscope or a Nikon E600 inverted microscope (Nikon Inc.) and a Spot RT CCD camera (Diagnostic Instruments Inc.). 4′,6-diamidino-2-phenylindole (DAPI) was used to identify individual cells. Quantification of cell phenotypes was with StereoInvestigator (MicroBrightfield Inc.); for each marker, 500-1000 cells were sampled systematically from standardized fields at 40×magnification. For quantification of live/dead cells, images were taken of cultures live-stained with propidum iodide (1 μg/ml; Molecular Probes) and Hoescht 33342 (1 μg/ml; Sigma) at 10×magnification, and cells were counted using Image-Pro (Media Cybernetics). The following primary antibodies were used: rabbit anti-Tuj1 (1:7500;Covance), mouse anti-RIP (1:25-1:75; Hybridoma Bank); guinea pig anti-GFAP (1:500-1:2500; Advanced Immunochemical, Inc.); rabbit anti-MBP (1:500; Chemicon International Inc.), rat anti-BrdU (1:400; Accurate). Secondary antibodies were all from Jackson ImmunoResearch and used at 1:250 dilution. The detection of BrdU in cultured cells required treatment in 2 N HCL at 37° C. for 30 min (Palmer et al., 1999). All experiments were independently replicated at least 3 times.

Test [2] has the same test system. Briefly: proliferation by BrdU incorporation. As to conditions: 500 ng/ml IGF-I. Here is the method:
We next determined whether proliferation of progenitors might contribute to the observed increase in oligodendrocyte differentiation. Bromodeoxyuridine (BrdU) (2.5 μM) was added to parallel cultures for 12 hours at times 0-, 12-, 24-, and 36-h after plating, followed by fixation and quantification of total cell numbers and BrdU+ cells. We counted the progenitor cells (evidenced by a lack of RIP staining) that were labeled with BrdU at each time point. For cells grown in the absence of IGF-I, we observed a progressive decrease in the percentage of cells that were proliferating (BrdU+) during the 48-h experiments (FIG. 3B). […] This initial decrease in proliferation is most likely due to FGF-2 mitogen withdrawal. […]
Cells were fixed with 4% paraformaldehyde, followed by immunocytochemical staining as described (Palmer et al., 1999). […] Quantification of cell phenotypes was with StereoInvestigator (MicroBrightfield Inc.); for each marker, 500-1000 cells were sampled systematically from standardized fields at 40×magnification. For quantification of live/dead cells, images were taken of cultures live-stained with propidum iodide (1 μg/ml; Molecular Probes) and Hoescht 33342 (1 μg/ml; Sigma) at 10×magnification, and cells were counted using Image-Pro (Media Cybernetics). […]
Background: Incorporation of labelled thymidine or its analogues reports DNA synthesis.

In the case of “IGF-I: human recombinant IGF-I (R&D Systems), growth factor polypeptide”, the “relative fold change of Noggin expression” value with Noggin is recorded as “at least 6 fold”. Further, in test [1] (500 ng/ml IGF-1 added to Q-VD-OPh-treated 2-day cultures), the “RIP+ cells” value is recorded as “large increase in RIP+ cells”. The “total cells positive for myelin basic protein (MBP)” value in test [1] (500 ng/ml IGF-I, 4-day time point) is “Approximately 23%”. The “overall number of RIP+ cells over time” value in test [1] (500 ng/ml IGF-I, 12 h to 48 h) is “progressive increase in the overall number of RIP+ cells over time”. Also, the “percentage of RIP+ cells” value in test [1] (500 ng/ml, 4 days, insulin-free N2 medium) is 45-55%. Also, in test [1] (20-500 ng/ml, 4-day cultures), the “dose dependence of oligodendrocyte differentiation” value is given as “occurred in a dose-dependent manner” and the “percentage of Tuj1-positive cells across tested concentrations” value is on record as “did not appear to change”. Besides, the “rank order of potency for oligodendrocyte differentiation” value in test [1] (different concentrations (20-1000 ng/ml)) is “IGF-I>IGF-II>insulin”. The “GFAP+ astrocytes” value in test [1] (each at 500 ng/ml, 4 days) was “few to no GFAP+ astrocytes”. Further, the “oligodendrocyte-promoting effects in other rat lines” value in test [1] (independently derived rat hippocampus progenitor cell line and clonally derived line (unpublished data)) is “confirmed”. Besides, the “percentage of RIP− cells that incorporated BrdU” value in test [2] (12-h BrdU periods up to 48 h) is “decreasing trend in the first three time periods”. In addition, the “RIP+ cells positive for BrdU” value in test [2] (after 24 hours) is on record as “significant increase in RIP+ cells positive for BrdU”.
